| melting point | Compound |
| --- | --- |
| 162 to 164 °C | CN1CCc2c(sc3ncn(CCN4CCN(c5ccccc5C#N)CC4)c(=O)c23)C1 [Example 68, 3,4,5,6,7,8-Hexahydro-7-methyl-3-[2-(4-(2-cyanophenyl)-piperazin-1-yl)ethyl]pyrido[4′,3′:4,5]thieno[2,3-d]-pyrimidin-4-one] |
| 140 to 141 °C | CN1CCc2c(sc3ncn(CCN4CCN(c5ccc6ccccc6c5)CC4)c(=O)c23)C1 [Example 73, 3,4,5,6,7,8-Hexahydro-7-methyl-3-[2-(4-naphth-2-ylpiperazin-1-yl)ethyl]pyrido[4′,3′:4,5]thieno[2,3-d]pyrimidin-4-one] |
| 168 to 170 °C | COc1ccccc1N1CCN(CCn2cnc3sc4c(c3c2=O)CCNC4)CC1 [Example 115, 3,4,5,6,7,8-Hexahydro-3-[2-(4-(2-methoxyphenyl)-piperazin-1-yl)ethyl]pyrido[4′,3′:4,5]thieno[2,3-d]pyrimidin-4-one] |
| 170 to 172 °C | COc1ccccc1N1CCN(CCn2cnc3sc4c(c3c2=O)CCN(C(C)=O)C4)CC1 [Example 116, 3,4,5,6,7,8-Hexahydro-7-acetyl-3-[2-(4-(2-methoxyphenyl)-piperazin-1-yl)ethyl]pyrido[4′,3′:4,5]thieno[2,3-d]-pyrimidin-4-one] |
| 176 to 178 °C | COc1ccccc1N1CCN(CCn2c(C)nc3sc4c(c3c2=O)CCN(C)C4)CC1 [Example 120, 3,4,5,6,7,8-Hexahydro-2,7-dimethyl-3-[2-(4-(2-methoxyphenyl)-piperazin-1-yl)ethyl]pyrido[4′,3′:4,5]thieno-[2,3-d]pyrimidin-4-one] |
| 135 to 137 °C | COc1ccccc1N1CCN(CCn2c(O)nc3sc4c(c3c2=O)CCN(C(C)=O)C4)CC1 [Example 121, 3,4,5,6,7,8-Hexahydro-7-acetyl-2-hydroxy-3-[2-(4-(2-methoxyphenyl)piperazin-1-yl)ethyl]pyrido[4′,3′:4,5]thieno-[2,3-d]pyrimidin-4-one] |
| 138 to 140 °C | Cc1cccc(N2CCN(CCn3cnc4sc5c(c4c3=O)CCN(C)C5)CC2)n1 [Example 126, 3,4,5,6,7,8-Hexahydro-7-methyl-3-[2-(4-(6-methylpyridin-2-yl)piperazin-1-yl)ethyl]pyrido[4′,3′:4,5]thieno[2,3-d]-pyrimidin-4-one] |
| 291 to 292 °C | CN1CCc2c(sc3ncn(CCN4CCN(c5nccc(C(F)(F)F)n5)CC4)c(=O)c23)C1 [Example 127, 3,4,5,6,7,8-Hexahydro-7-methyl-3-[2-(4-(4-trifluoromethyl-pyrimidin-2-yl)piperazin-1-yl)ethyl]pyrido[4′,3′:4,5]-thieno[2,3-d]pyrimidin-4-one] |
| 139 to 141 °C | Cc1ccc(N2CCN(CCn3cnc4sc5c(c4c3=O)CCN(C)C5)CC2)c2ccccc12 [Example 138, 3,4,5,6,7,8-Hexahydro-7-methyl-3-[2-(4-(4-methylnaphth-1-yl)piperazin-1-yl)ethyl]pyrido[4′,3′:4,5]thieno[2,3-d]-pyrimidin-4-one] |
| 157 to 158 °C | CN1CCc2c(sc3ncn(CCN4CCN(c5ccc(F)c6ccccc56)CC4)c(=O)c23)C1 [Example 140, 3,4,5,6,7,8-Hexahydro-7-methyl-3-[2-(4-(4-fluoronaphth-1-yl)-piperazin-1-yl)ethyl]pyrido[4′,3′:4,5]thieno[2,3-d]-pyrimidin-4-one] |
| 101 to 102 °C | CN1CCc2c(sc3ncn(CCN4CCN(c5cc(C(F)(F)F)ccn5)CC4)c(=O)c23)C1 [Example 141, 3,4,5,6,7,8-Hexahydro-7-methyl-3-[2-(4-(4-trifluoromethylpyridin-2-yl)piperazin-1-yl)ethyl]pyrido[4′,3′:4,5]thieno-[2,3-d]pyrimidin-4-one] |
| 121 to 123 °C | CN1CCc2c(sc3ncn(CCN4CCN(c5ccccc5)CC4)c(=O)c23)C1 [Example 145, 3,4,5,6,7,8-Hexahydro-7-methyl-3-[2-(4-phenylpiperazin-1-yl)ethyl]pyrido[4′,3′:4,5]thieno[2,3-d]pyrimidin-4-one] |
| 136 to 138 °C | Cc1ccnc(N2CCN(CCn3cnc4sc5c(c4c3=O)CCN(C)C5)CC2)n1 [Example 153, 3,4,5,6,7,8-Hexahydro-7-methyl-3-[2-(4-(4-methylpyrimidin-2-yl)piperazin-1-yl)ethyl]pyrido[4′,3′:4,5]thieno[2,3-d]-pyrimidin-4-one] |

— patent US6387912B1, “Utilization of pyrimidine derivatives for preventing and treating cerebral ischaemia” (BASF Aktiengesellschaft, priority 1999, dated 2002)
